Results: patent US12539292B2, “BRM targeting compounds and associated methods of use” (Arvinas Operations, Inc., priority 2018, dated 2026)
Like-named read-outs stand apart in the source and are kept apart here.

Target: T1, BRM (Homo sapiens, UniProt P51531)
T1 construct: In-Cell Western Screen of BRM Degradation in SW1573 Cells; endogenous in cells; host or cells: SW1573
Experiment: In-cell Western screen of BRM degradation in SW1573 cells (Dmax and DC50)
Type: cell-based
Summary of the method: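 BRM levels were read by LI-COR in-cell Western after two-channel (800/680 nm) immunostaining of fixed, Triton-permeabilised SW1573 cells.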

[1] = BRM degradation, SW1573 cells, read-out: DC50
[2] = BRM degradation, SW1573 cells, tested at the top concentration of between 0.3 and 10 μM, read-out: Dmax (%) (% degraded)
[3] = SW1573, % degraded, when tested at the top concentration of between 0.3 and 10 μM, read-out: BRM Dmax (%)
[4] = target protein degradation, read-out: BRM DC50

T1 sequence (P51531 whole entry): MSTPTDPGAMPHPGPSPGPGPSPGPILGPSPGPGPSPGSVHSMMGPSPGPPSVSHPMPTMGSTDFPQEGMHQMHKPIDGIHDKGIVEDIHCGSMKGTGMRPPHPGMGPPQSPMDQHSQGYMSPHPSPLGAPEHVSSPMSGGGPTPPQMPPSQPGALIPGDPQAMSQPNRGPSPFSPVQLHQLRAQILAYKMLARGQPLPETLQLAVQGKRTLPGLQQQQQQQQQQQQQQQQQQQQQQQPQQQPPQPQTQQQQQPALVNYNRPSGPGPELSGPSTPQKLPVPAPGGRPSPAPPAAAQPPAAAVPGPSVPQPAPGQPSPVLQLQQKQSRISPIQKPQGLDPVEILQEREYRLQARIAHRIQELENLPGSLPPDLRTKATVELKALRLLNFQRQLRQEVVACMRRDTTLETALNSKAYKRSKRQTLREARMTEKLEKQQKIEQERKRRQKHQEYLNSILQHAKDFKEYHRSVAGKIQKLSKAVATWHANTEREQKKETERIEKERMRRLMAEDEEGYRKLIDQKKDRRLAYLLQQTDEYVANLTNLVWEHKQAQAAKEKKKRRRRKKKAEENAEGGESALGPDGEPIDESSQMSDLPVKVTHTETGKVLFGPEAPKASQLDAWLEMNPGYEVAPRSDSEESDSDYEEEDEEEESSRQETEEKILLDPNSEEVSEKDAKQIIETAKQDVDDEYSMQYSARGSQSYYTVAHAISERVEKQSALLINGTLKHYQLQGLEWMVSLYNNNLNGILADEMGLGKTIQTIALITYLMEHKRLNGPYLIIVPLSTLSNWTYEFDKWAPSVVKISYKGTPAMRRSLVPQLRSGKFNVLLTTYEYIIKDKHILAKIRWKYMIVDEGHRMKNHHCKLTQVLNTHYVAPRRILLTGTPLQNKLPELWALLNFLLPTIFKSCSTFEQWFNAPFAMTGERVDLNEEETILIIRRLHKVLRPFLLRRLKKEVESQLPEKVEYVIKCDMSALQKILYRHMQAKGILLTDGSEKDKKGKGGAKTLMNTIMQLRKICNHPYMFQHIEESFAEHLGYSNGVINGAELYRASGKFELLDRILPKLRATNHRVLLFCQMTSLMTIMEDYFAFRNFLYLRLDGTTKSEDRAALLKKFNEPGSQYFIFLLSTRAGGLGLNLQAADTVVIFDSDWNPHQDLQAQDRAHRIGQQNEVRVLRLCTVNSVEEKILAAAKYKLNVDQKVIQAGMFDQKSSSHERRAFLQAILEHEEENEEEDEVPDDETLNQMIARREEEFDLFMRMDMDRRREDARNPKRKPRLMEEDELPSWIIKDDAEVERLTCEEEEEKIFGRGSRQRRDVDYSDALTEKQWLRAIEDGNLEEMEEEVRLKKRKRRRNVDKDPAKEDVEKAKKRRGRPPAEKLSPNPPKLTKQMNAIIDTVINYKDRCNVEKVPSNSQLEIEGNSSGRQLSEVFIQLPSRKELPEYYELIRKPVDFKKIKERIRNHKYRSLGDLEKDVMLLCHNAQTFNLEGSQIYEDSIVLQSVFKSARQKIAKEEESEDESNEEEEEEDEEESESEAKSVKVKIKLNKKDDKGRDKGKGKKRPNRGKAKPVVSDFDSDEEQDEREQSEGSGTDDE

**Q.** `Cc1ncsc1-c1ccc([C@H](C)NC(=O)[C@@H]2C[C@@H](O)CN2C(=O)[C@@H](c2cc(N3CCC(CN4CCN(CC5CC(Oc6cc(N7C8CC[C@@H]7CN(c7cc(-c9ccccc9O)nnc7N)C8)ccn6)C5)CC4)CC3)no2)C(C)C)cc1` (stereo partly drawn) [compound 608, (2S,4R)-1-((2R)-2-(3-(4-((4-(((1r,3r)-3-((4-(3-(3-amino-6-(2-hydroxyphenyl)pyridazin-4-yl)-3,8-diazabicyclo[3.2.1]octan-8-yl)pyridin-2-yl)oxy)cyclobutyl)methyl)piperazin-1-yl)methyl)piperidin-1-yl)isoxazol-5-yl)-3-methylbutanoyl)-4-hydroxy-N-((S)-1-(4-(4-methylthiazol-5-yl)phenyl)ethyl)pyrrolidine-2-carboxamide] was tested. Which “**Dmax (%) (% degraded)” value (BRM degradation, SW1573 cells, Table 2D) did it give?
**A.** A (A > 75)

**Q.** And the DC50 (BRM degradation, SW1573 cells, Table 2D, read-out: *DC50)?
**A.** < 2.5 nM

**Q.** For `COCC[C@@H](NC(=O)[C@@H]1C[C@@H](O)CN1C(=O)[C@@H](c1cc(N2CCC(CN3CCC(O[C@H]4C[C@H](Oc5cc(N6C7CCC6CN(c6cc(-c8ccccc8O)nnc6N)C7)ccn5)C4)CC3)CC2)no1)C(C)C)c1ccc(-c2scnc2C)cc1` [compound 669, (2S,4R)-1-((2R)-2-(3-(4-((4-((1r,3r)-3-((4-(3-(3-amino-6-(2-hydroxyphenyl)pyridazin-4-yl)-3,8-diazabicyclo[3.2.1]octan-8-yl)pyridin-2-yl)oxy)cyclobutoxy)piperidin-1-yl)methyl)piperidin-1-yl)isoxazol-5-yl)-3-methylbutanoyl)-4-hydroxy-N-((R)-3-methoxy-1-(4-(4-methylthiazol-5-yl)phenyl)propyl)pyrrolidine-2-carboxamide], which DC50 [1] is on record?
**A.** 10 to 30 nM

**Q.** And the Dmax (BRM degradation, SW1573 cells, read-out: Dmax (% degraded))?
**A.** 50 to 75%

**Q.** `Cc1ncsc1-c1ccc([C@H](CO)NC(=O)[C@@H]2C[C@@H](O)CN2C(=O)[C@H](c2cc(OCCN3CCN(CCOc4cc(N5C6CCC5CN(c5cc(-c7ccccc7O)nnc5N)C6)ccn4)CC3)no2)C(C)C)cc1` [compound 158, (2S,4R)-1-((2S)-2-(3-(2-(4-(2-((4-(3-(3-amino-6-(2-hydroxyphenyl)pyridazin-4-yl)-3,8-diazabicyclo[3.2.1]octan-8-yl)pyridin-2-yl)oxy)ethyl)piperazin-1-yl)ethoxy)isoxazol-5-yl)-3-methylbutanoyl)-4-hydroxy-N-((R)-2-hydroxy-1-(4-(4-methylthiazol-5-yl)phenyl)ethyl)pyrrolidine-2-carboxamide] was tested. Which DC50 [1] did it give?
**A.** > 30 nM

**Q.** And the Dmax [2]?
**A.** > 75%

**Q.** For `Cc1cnsc1-c1ccc([C@H](C)NC(=O)[C@@H]2C[C@@H](O)CN2C(=O)[C@@H](c2cc(OCCN3CCN(CCOc4cc(N5C6CCC5CN(c5cc(-c7ccccc7O)nnc5N)C6)ccn4)CC3)no2)C(C)C)cc1` [compound 266, (2S,4R)-1-((2R)-2-(3-(2-(4-(2-((4-(3-(3-amino-6-(2-hydroxyphenyl)pyridazin-4-yl)-3,8-diazabicyclo[3.2.1]octan-8-yl)pyridin-2-yl)oxy)ethyl)piperazin-1-yl)ethoxy)isoxazol-5-yl)-3-methylbutanoyl)-4-hydroxy-N-((S)-1-(4-(4-methylisothiazol-5-yl)phenyl)ethyl)pyrrolidine-2-carboxamide], which DC50 [1] is on record?
**A.** < 2.5 nM

**Q.** And the Dmax [2]?
**A.** > 75%

**Q.** For `Cc1ncsc1-c1ccc([C@H](C)NC(=O)[C@@H]2C[C@@H](O)CN2C(=O)[C@@H](c2cc(OCCN3CCC(O[C@H]4C[C@H](OCCN5CCOC6(CCN(c7cc(-c8ccccc8O)nnc7N)CC6)C5)C4)CC3)no2)C(C)C)cc1` [compound 359, (2S,4R)-1-((R)-2-(3-(2-(4-((1r,3R)-3-(2-(9-(3-amino-6-(2-hydroxyphenyl)pyridazin-4-yl)-1-oxa-4,9-diazaspiro[5.5]undecan-4-yl)ethoxy)cyclobutoxy)piperidin-1-yl)cthoxy)isoxazol-5-yl)-3-methylbutanoyl)-4-hydroxy-N-((S)-1-(4-(4-methylthiazol-5-yl)phenyl)ethyl)pyrrolidine-2-carboxamide], which Dmax [3] is on record?
**A.** > 75%

**Q.** And the DC50 [4]?
**A.** < 2.5 nM

**Q.** Which DC50 (BRM degradation, read-out: BRM DC50) does the source give for `Cc1cc([C@@H](C(=O)N2C[C@H](O)C[C@H]2C(=O)N[C@@H](COCCCCCc2cc(-c3ccccc3O)nnc2N)c2ccc(-c3scnc3C)cc2)C(C)C)on1` [compound 529, (2S,4R)-N-((R)-2-((5-(3-amino-6-(2-hydroxyphenyl)pyridazin-4-yl)pentyl)oxy)-1-(4-(4-methylthiazol-5-yl)phenyl)ethyl)-4-hydroxy-1-((S)-3-methyl-2-(3-methylisoxazol-5-yl)butanoyl)pyrrolidine-2-carboxamide] here?
**A.** > 30 nM

**Q.** How did the DC50 [1] turn out when `Cc1ncsc1-c1ccc(CNC(=O)[C@@H]2C[C@@H](O)CN2C(=O)[C@H](C(C)C)N2Cc3ccccc3C2=O)c(OCCOCCOCCOCCn2cc(-c3cc(-c4ccccc4O)nnc3N)cn2)c1` [compound 12, (2S,4R)-N-(2-(2-(2-(2-(2-(4-(3-amino-6-(2-hydroxyphenyl)pyridazin-4-yl)-1H-pyrazol-1-yl)ethoxy)ethoxy)ethoxy)ethoxy)-4-(4-methylthiazol-5-yl)benzyl)-4-hydroxy-1-((S)-3-methyl-2-(1-oxoisoindolin-2-yl)butanoyl)pyrrolidine-2-carboxamide] was run?
**A.** > 30 nM

**Q.** And the Dmax (BRM degradation, SW1573 cells, when tested at the top concentration of between 0.3 and 10 μM, read-out: Dmax (%) (% degraded))?
**A.** 50 to 75%

**Q.** `Cc1ncsc1-c1ccc([C@H](C)NC(=O)[C@@H]2C[C@@H](O)CN2C(=O)[C@H](c2cc(OCCOCCOc3cc(N4C5CCC4CN(c4cc(-c6ccccc6O)nnc4N)C5)ccn3)no2)C(C)C)cc1` [compound 356, (2S,4R)-1-((2S)-2-(3-(2-(2-((4-(3-(3-amino-6-(2-hydroxyphenyl)pyridazin-4-yl)-3,8-diazabicyclo[3.2.1]octan-8-yl)pyridin-2-yl)oxy)ethoxy)ethoxy)isoxazol-5-yl)-3-methylbutanoyl)-4-hydroxy-N-((S)-1-(4-(4-methylthiazol-5-yl)phenyl)ethyl)pyrrolidine-2-carboxamide] was tested. Which DC50 [4] did it give?
**A.** > 30 nM

**Q.** Which Dmax [3] does the source give for `Cc1ncsc1-c1cnc([C@@H](C)NC(=O)[C@@H]2C[C@@H](O)CN2C(=O)[C@@H](c2cc(OCCN3CCC(O[C@H]4C[C@H](Oc5cc(N6C7CCC6CN(c6cc(-c8ccccc8O)nnc6N)C7)ccn5)C4)CC3)no2)C(C)C)cn1` [compound 441, (2S,4R)-1-((2R)-2-(3-(2-(4-((1r,3R)-3-((4-(3-(3-amino-6-(2-hydroxyphenyl)pyridazin-4-yl)-3,8-diazabicyclo[3.2.1]octan-8-yl)pyridin-2-yl)oxy)cyclobutoxy)piperidin-1-yl)ethoxy)isoxazol-5-yl)-3-methylbutanoyl)-4-hydroxy-N-((R)-1-(5-(4-methylthiazol-5-yl)pyrazin-2-yl)ethyl)pyrrolidine-2-carboxamide] here?
**A.** > 75%

**Q.** What about the DC50 (degradation of BRM, read-out: BRM DC50) of the same molecule?
**A.** 2.5 to 10 nM

**Q.** What does the source list for `CC(C)[C@@H](C(=O)N1C[C@H](O)C[C@H]1C(=O)N[C@@H](C)c1ccc(-c2scnc2CO)cc1)c1cc(OCCN2CCC(O[C@H]3C[C@H](Oc4cc(N5C6CCC5CN(c5cc(-c7ccccc7O)nnc5N)C6)ccn4)C3)CC2)no1` [compound 211, (2S,4R)-1-((2R)-2-(3-(2-(4-((1r,3R)-3-((4-(3-(3-amino-6-(2-hydroxyphenyl)pyridazin-4-yl)-3,8-diazabicyclo[3.2.1]octan-8-yl)pyridin-2-yl)oxy)cyclobutoxy)piperidin-1-yl)ethoxy)isoxazol-5-yl)-3-methylbutanoyl)-4-hydroxy-N-((S)-1-(4-(4-(hydroxymethyl)thiazol-5-yl)phenyl)ethyl)pyrrolidine-2-carboxamide]?
**A.** DC50 [1]: < 2.5 nM; Dmax [2]: > 75%
